# Assay results: US20150105252A1, “SUBSTITUTED PYRAZOLES AS HERBICIDES” (E I DU PONT DE NEMOURS AND COMPANY, priority 2013, published 2015)
# Key:
# [1] = tested on: crabgrass, large; assay: Test A preemergence; type: in vivo, Digitaria sanguinalis; conditions: preemergence
# Summary of the method: (§1)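 Ratings express plant response from 0 (no effect) to 100 (complete control), judged visually against untreated controls after approximately 10 days in the greenhouse. Preemergence applications were made as directed soil sprays onto seeded loam–sand mix, and postemergence applications onto 2–10 cm plants at one- to two-leaf stage.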
# [2] = tested on: foxtail, giant; assay: Test A preemergence; type: in vivo, Setaria faberii; conditions: preemergence
# Summary of the method: as §1
# [3] = tested on: pigweed; assay: Test A preemergence; type: in vivo, Amaranthus retroflexus; conditions: preemergence
# Summary of the method: as §1
# [4] = tested on: velvetleaf; assay: Test A preemergence; type: in vivo, Abutilon theophrasti; conditions: preemergence
# Summary of the method: as §1
# [5] = tested on: wheat; assay: Test A preemergence; type: in vivo, Triticum aestivum; conditions: preemergence
# Summary of the method: as §1
# [6] = tested on: corn; assay: Test A preemergence; type: in vivo, Zea mays; conditions: preemergence
# Summary of the method: as §1
# [7] = tested on: barnyardgrass; assay: Test A postemergence; type: in vivo, Echinochloa crus-galli
# Summary of the method: as §1
# [8] = tested on: foxtail, giant; assay: Test A postemergence; type: in vivo, Setaria faberii
# Summary of the method: as §1
# [9] = tested on: wheat; assay: Test A postemergence; type: in vivo, Triticum aestivum
# Summary of the method: as §1
# [10] = tested on: rice; assay: Test B flood; type: in vivo, Oryza sativa; conditions: 250 g ai/ha, visual rating on 0 to 100 scale (0 no effect, 100 complete control), 13 to 15 days
# Summary of the method: (§2)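 Plants were grown to the 2-leaf stage and pots flooded to 3 cm above soil. Compounds were applied directly into the paddy water, with depth kept for the test. After 13–15 days in greenhouse, response was rated visually against controls on a 0 (no effect) to 100 (complete control) scale.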
# [11] = tested on: sedge, umbrella; assay: Test B flood; type: in vivo, Cyperus difformis; conditions: 250 g ai/ha, visual rating on 0 to 100 scale (0 no effect, 100 complete control), 13 to 15 days
# Summary of the method: as §2
# [12] = tested on: ducksalad; assay: Test B flood; type: in vivo, Heteranthera limosa; conditions: 250 g ai/ha, visual rating on 0 to 100 scale (0 no effect, 100 complete control), 13 to 15 days
# Summary of the method: as §2
# [13] = tested on: morningglory; assay: Test C preemergence; type: in vivo, Ipomoea coccinea; conditions: for Plant response rating (scale of 0 to 100), Morningglory: Preemergence, 250 g ai/ha; for Morningglory plant response rating / Plant response rating, Morningglory: preemergence, 13 to 15 days; for Morningglory plant response rating: scale 0 to 100 (0 no effect, 100 complete control); for Plant response rating, Morningglory: 125 g ai/ha, scale 0 to 100, 0 = no effect, 100 = complete control
# Summary of the method: (§3)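 Postemergence values come from plants sprayed at the 1- to 4-leaf stage (2–18 cm) in peat moss–vermiculite medium; preemergence values from seeds treated in a loam–sand blend. Both evaluated visually against controls after 13–15 greenhouse days, scale 0–100.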
# [14] = tested on: nutsedge, yellow; assay: Test C preemergence; type: in vivo, Cyperus esculentus; conditions: for Plant response rating (scale of 0 to 100), Nutsedge, Yellow: Preemergence, 250 g ai/ha; for Nutsedge, Yellow plant response rating / Plant response rating, Nutsedge, Yellow: preemergence, 13 to 15 days; for Nutsedge, Yellow plant response rating: scale 0 to 100 (0 no effect, 100 complete control); for Plant response rating, Nutsedge, Yellow: 125 g ai/ha, scale 0 to 100, 0 = no effect, 100 = complete control
# Summary of the method: as §3
# [15] = tested on: ragweed; assay: Test C preemergence; type: in vivo, Ambrosia elation; conditions: for Plant response rating (scale of 0 to 100), Ragweed: Preemergence, 250 g ai/ha; for Ragweed plant response rating / Plant response rating, Ragweed: preemergence, 13 to 15 days; for Ragweed plant response rating: scale 0 to 100 (0 no effect, 100 complete control); for Plant response rating, Ragweed: 125 g ai/ha, scale 0 to 100, 0 = no effect, 100 = complete control
# Summary of the method: as §3
# [16] = 125 g ai/ha, visual injury, 0 to 100 scale, approx. 10 days
# [17] = 500 g ai/ha, visual injury after approx. 10 days, 0 to 100 scale (0 no effect, 100 complete control)
# [18] = Postemergence, 500 g ai/ha, 0 to 100 scale (0 no effect, 100 complete control)
# [19] = postemergence, 125 g ai/ha, about 10 days, visual rating on 0 to 100 scale (0 no effect, 100 complete control)
SMILES,"Crabgrass, Large plant response rating [1, 16]","Crabgrass, Large plant response rating [1, 17]","Foxtail, Giant plant response rating [2, 16]","Foxtail, Giant plant response rating [2, 17]","Pigweed plant response rating [3, 16]","Pigweed plant response rating [3, 17]","Velvetleaf plant response rating [4, 16]","Velvetleaf plant response rating [4, 17]","Wheat plant response rating [5, 16]","Wheat plant response rating [5, 17]","Corn plant response rating [6, 16]","Corn plant response rating [6, 17]","Barnyardgrass plant response rating [7, 18]","Barnyardgrass plant response rating [7, 19]","Foxtail, Giant plant response rating [8, 18]","Foxtail, Giant plant response rating [8, 19]","Wheat plant response rating [9, 18]","Wheat plant response rating [9, 19]","Plant response rating, Rice [10]","Plant response rating, Sedge, Umbrella [11]",also measured
CCNC(=O)c1cc(CC)n(Cc2ccnc(OC(F)F)c2)n1 [Compound 130],100,100,100,100,100,100,70,100,10,90,0,90,90,70,90,60,90,20,15,90,"Plant response rating, Ducksalad [12]: 90; Plant response rating (scale of 0 to 100), Morningglory [13]: 100; Morningglory plant response rating ([13]; 31 g ai/ha, visual rating): 65; Morningglory plant response rating ([13]; 62 g ai/ha): 98; Plant response rating, Morningglory [13]: 100; Plant response rating (scale of 0 to 100), Nutsedge, Yellow [14]: 75; Nutsedge, Yellow plant response rating ([14]; 31 g ai/ha, visual rating): 25; Nutsedge, Yellow plant response rating ([14]; 62 g ai/ha): 65; Plant response rating, Nutsedge, Yellow [14]: 75; Plant response rating (scale of 0 to 100), Ragweed [15]: 100; Ragweed plant response rating ([15]; 31 g ai/ha, visual rating): 70; Ragweed plant response rating ([15]; 62 g ai/ha): 100; Plant response rating, Ragweed [15]: 100"
CCCNC(=O)c1cc(CC)n(Cc2ccnc(OC(F)F)c2)n1 [Compound 132],100,100,100,100,100,100,100,100,80,100,40,80,90,90,90,80,90,80,35,90,"Plant response rating, Ducksalad [12]: 100; Plant response rating (scale of 0 to 100), Morningglory [13]: 100; Morningglory plant response rating ([13]; 31 g ai/ha, visual rating): 60; Morningglory plant response rating ([13]; 62 g ai/ha): 100; Plant response rating, Morningglory [13]: 100; Plant response rating (scale of 0 to 100), Nutsedge, Yellow [14]: 70; Nutsedge, Yellow plant response rating ([14]; 31 g ai/ha, visual rating): 35; Nutsedge, Yellow plant response rating ([14]; 62 g ai/ha): 55; Plant response rating, Nutsedge, Yellow [14]: 80; Plant response rating (scale of 0 to 100), Ragweed [15]: 100; Ragweed plant response rating ([15]; 31 g ai/ha, visual rating): 70; Ragweed plant response rating ([15]; 62 g ai/ha): 90; Plant response rating, Ragweed [15]: 100"
